Measured values reported in patent publication US20260026479A1, “GENETICALLY ENGINEERED MICE MODELS FOR MULTIPLE MYELOMA” (FUNDACIÓN PARA LA INVESTIGACIÓN MÉDICA APLICADA, priority 2022, published 2026).

Key:
murine MM cells = test: In vitro viability assay, murine MM-derived cell lines; type: cell-based, mouse; details: 48 hours, Deep Blue Cell Viability Kit
Experimental: (§1) Mice were monitored twice weekly for signs of disease and were then sacrificed. […] The samples that were able to grow for weeks ex vivo were tested for the presence of the original transgenic lesions and then characterized. Eight MM-derived cells lines established from mice carrying different lesions. In vitro therapy assays. For viability assays, murine or human MM cells were seeded in 96-well black culture plates and treated with different drugs alone or in combination for 48 hours. Cell viability was quantified using a Deep Blue Cell Viability™ Kit (Biolegend) and analyzed with a Skanit Varioskan Flash 2.4.3 (Thermo Scientific) fluorometer. Treatments were administered to cells at a density of 0.3×10^6 cells/ml, and all tests were performed in triplicate. After treatment, cells were subjected to qRT-PCR or Western blot analyses, as indicated, according to previously reported methods.

human MM cells = test: In vitro viability assay, human MM cell lines; type: cell-based; details: 48 hours, Deep Blue Cell Viability Kit
Experimental: (§2) Ten cell lines derived from MM patients (RPMI8226, KMS12, KMS26, KMS11, MM1S, U266, K620, JJN3, H929, and MOLP2) were included in this study. All have been validated according to the AmpFLSTR® Identifiler®, were tested for Mycoplasma sp.
as §1

MYC [1] = test: MYC expression and phosphorylation after treatment (Western blot, qRT-PCR), mouse MM cell lines; type: cell-based
Experimental: (§3) A total of 1 μg of total RNA from GFP^+-sorted cells was isolated with a NucleoSpin RNA kit (Macherey-Nagel) and reverse transcribed into cDNA using MMLV enzyme technology (Invitrogen). PCR was performed on an ABI Viia7 instrument using SYBR green fluorophore and primers designed to amplify specific mouse or human genes. Specific primers are listed in the Key Resources Table.
as §1

MYC [2] = target: T1, MYC (Homo sapiens, UniProt P01106); test: MYC expression and phosphorylation after treatment (Western blot, qRT-PCR), human MM cell lines; type: cell-based
T1 construct: Western blot analysis of MYC protein expression in human MM cell lines; endogenous in cells; host or cells: human MM cell lines (of RPMI8226, KMS12, KMS26, KMS11, MM1S, U266, K620, JJN3, H929, MOLP2)
Experimental: as §3, §2
as §1, with “After treatment, cells were subjected to qRT-PCR or Western blot analyses, as indicated, according to previously reported methods.” left out

T1 sequence (P01106 whole entry): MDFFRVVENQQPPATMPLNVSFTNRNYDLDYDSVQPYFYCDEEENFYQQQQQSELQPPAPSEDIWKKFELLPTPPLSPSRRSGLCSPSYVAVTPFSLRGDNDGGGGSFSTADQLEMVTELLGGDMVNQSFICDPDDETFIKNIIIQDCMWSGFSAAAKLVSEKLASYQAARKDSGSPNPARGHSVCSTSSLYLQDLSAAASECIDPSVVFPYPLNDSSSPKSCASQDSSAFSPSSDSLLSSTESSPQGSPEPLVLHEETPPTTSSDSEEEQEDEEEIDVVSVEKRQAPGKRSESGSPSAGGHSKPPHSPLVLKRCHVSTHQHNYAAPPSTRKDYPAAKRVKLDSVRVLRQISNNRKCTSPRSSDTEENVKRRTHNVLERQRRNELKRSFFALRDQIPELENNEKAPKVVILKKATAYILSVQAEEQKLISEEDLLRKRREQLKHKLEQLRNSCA

- MYC protein expression (MYC [2]): dose-dependent MYC protein reduction
Substance: MYCi975
- MM cell viability (murine MM cells): decreased viability
- MM cell viability (human MM cells): decreased viability
- MYC protein expression (MYC [1]): dose-dependent MYC protein reduction
